Experimental data: ChEMBL document CHEMBL1681728, “An automated, polymer-assisted strategy for the preparation of urea and thiourea derivatives of 15-membered azalides as potential antimalarial chemotherapeutics” (Bioorg Med Chem, 2011)

Columns and labels:
Assay type in all cases: functional, organism-based
Plasmodium falciparum [1] = assay: Antimalarial activity against chloroquine-,pyrimethamine-resistant Plasmodium falciparum W2 assessed as inhibition of [3H]hypoxanthine incorporation after 96 hrs by microtiter plate scintillation counting
Plasmodium falciparum [2] = assay: Antimalarial activity against multidrug-resistant Plasmodium falciparum TM91C235 assessed as inhibition of [3H]hypoxanthine incorporation after 96 hrs by microtiter plate scintillation counting
Plasmodium falciparum [3] = assay: Antimalarial activity against chloroquine-sensitive Plasmodium falciparum D6 assessed as inhibition of [3H]hypoxanthine incorporation after 96 hrs by microtiter plate scintillation counting

Row | Compound | IC50 (Plasmodium falciparum [1]) [nM] | IC50 (Plasmodium falciparum [2]) [nM] | IC50 (Plasmodium falciparum [3]) [nM]
1 | CC[C@H]1OC(=O)[C@H](C)[C@@H](O[C@H]2C[C@@](C)(OC)[C@@H](O)[C@H](C)O2)[C@H](C)[C@@H](O[C@@H]2O[C@H](C)C[C@H](N(C)C)[C@H]2O)[C@](C)(O)C[C@@H](C)CN(CCCNC(=O)Nc2ccc(C(C)=O)cc2)[C@H](C)[C@@H](O)[C@]1(C)O | 709 | 398 | 1730
2 | CC[C@H]1OC(=O)[C@H](C)[C@@H](O[C@H]2C[C@@](C)(OC)[C@@H](O)[C@H](C)O2)[C@H](C)[C@@H](O[C@@H]2O[C@H](C)C[C@H](N(C)C)[C@H]2O)[C@](C)(O)C[C@@H](C)CN(CCCNC(=S)Nc2cccc3nsnc23)[C@H](C)[C@@H](O)[C@]1(C)O | 88.2 | 101 | 176
3 | CCc1ccccc1NC(=S)NCCCN1C[C@H](C)C[C@@](C)(O)[C@H](O[C@@H]2O[C@H](C)C[C@H](N(C)C)[C@H]2O)[C@@H](C)[C@H](O[C@H]2C[C@@](C)(OC)[C@@H](O)[C@H](C)O2)[C@@H](C)C(=O)O[C@H](CC)[C@@](C)(O)[C@H](O)[C@H]1C | 96.2 | 252 | 445
4 | CC[C@H]1OC(=O)[C@H](C)[C@@H](O[C@H]2C[C@@](C)(OC)[C@@H](O)[C@H](C)O2)[C@H](C)[C@@H](O[C@@H]2O[C@H](C)C[C@H](N(C)C)[C@H]2O)[C@](C)(O)C[C@@H](C)CN(CCCNC(=S)Nc2cccc(-c3ccccc3)c2OC)[C@H](C)[C@@H](O)[C@]1(C)O | 114 | 55.3 | 58.1
5 | CC[C@H]1OC(=O)[C@H](C)[C@@H](O[C@H]2C[C@@](C)(OC)[C@@H](O)[C@H](C)O2)[C@H](C)[C@@H](O[C@@H]2O[C@H](C)C[C@H](N(C)C)[C@H]2O)[C@](C)(O)C[C@@H](C)CN(CCCNC(=S)Nc2cccc([N+](=O)[O-])c2)[C@H](C)[C@@H](O)[C@]1(C)O | 48.3 | 42.9 | 53.4
6 | CC[C@H]1OC(=O)[C@H](C)[C@@H](O[C@H]2C[C@@](C)(OC)[C@@H](O)[C@H](C)O2)[C@H](C)[C@@H](O[C@@H]2O[C@H](C)C[C@H](N(C)C)[C@H]2O)[C@](C)(O)C[C@@H](C)CN(CCCNC(=O)Nc2cccc3nsnc23)[C@H](C)[C@@H](O)[C@]1(C)O | 69.2 | 64.7 | 266
7 | CCc1ccc(NC(=O)NCCCN2C[C@H](C)C[C@@](C)(O)[C@H](O[C@@H]3O[C@H](C)C[C@H](N(C)C)[C@H]3O)[C@@H](C)[C@H](O[C@H]3C[C@@](C)(OC)[C@@H](O)[C@H](C)O3)[C@@H](C)C(=O)O[C@H](CC)[C@@](C)(O)[C@H](O)[C@H]2C)cc1 | 73.8 | 99.3 | 226
8 | CCOC(=O)c1ccc(NC(=S)NCCCN2C[C@H](C)C[C@@](C)(O)[C@H](O[C@@H]3O[C@H](C)C[C@H](N(C)C)[C@H]3O)[C@@H](C)[C@H](O[C@H]3C[C@@](C)(OC)[C@@H](O)[C@H](C)O3)[C@@H](C)C(=O)O[C@H](CC)[C@@](C)(O)[C@H](O)[C@H]2C)cc1 | 70.9 | 107 | 121
9 | CC[C@H]1OC(=O)[C@H](C)[C@@H](O[C@H]2C[C@@](C)(OC)[C@@H](O)[C@H](C)O2)[C@H](C)[C@@H](O[C@@H]2O[C@H](C)C[C@H](N(C)C)[C@H]2O)[C@](C)(O)C[C@@H](C)CN(CCCNC(=S)Nc2ccc([N+](=O)[O-])cc2)[C@H](C)[C@@H](O)[C@]1(C)O | 37.1 | 51.3 | 103
10 | CC[C@H]1OC(=O)[C@H](C)[C@@H](O[C@H]2C[C@@](C)(OC)[C@@H](O)[C@H](C)O2)[C@H](C)[C@@H](O[C@@H]2O[C@H](C)C[C@H](N(C)C)[C@H]2O)[C@](C)(O)C[C@@H](C)CN(CCCNC(=S)Nc2ccc(OCc3ccccc3)cc2)[C@H](C)[C@@H](O)[C@]1(C)O | 88.9 | 160 | 249
